{
  "source": "paper PMC9729826",
  "about": "“Hypoaminoacidemia underpins glucagon-mediated energy expenditure and weight loss” (Cell Reports Medicine, 2022)",
  "key": {"[1]": {"system": "diet-induced obese (DIO) C57BL/6 mice", "experiment": "Chronic low-dose (7.5 nmol/kg) G108 study in DIO mice on SP or HP diet", "assay_type": "in vivo, mouse", "conditions": "7.5 nmol/kg s.c. daily", "text": "Lean 10-week-old C57BL/6 mice (N = 27) were provided ad libitum a 60 kcal% high fat diet (diet D12492, Table S2) for 12 weeks prior to the start of the study. The cohort of mice were individually housed and divided into three treatment groups, based on treatment and diet allocation: Vehicle/High fat, Standard protein diet (SP) (N = 9), 7.5 nmol/kg G108/SP diet (N = 9) and 7.5 nmol/kg G108/High fat, High protein diet (HP) (N = 9). The high fat, standard protein diet (SP diet) (D08091803) and high fat, high protein diet (HP diet) (D08091801) are detailed in Table S2. All mice had ad libitum access to water and their allocated diets. Mice were subcutaneously administered with their respective treatments at 9 am each day for 27 days. Food intake, water intake and body weight were measured using the same weighing scale each morning prior to vehicle or G108 administration. EchoMRI was carried out at baseline, day 14 and day 25. Tail venesection was carried out on day 13 of the study immediately pre-treatment. 40–50 μL of blood was collected and immediately transferred on ice, centrifuged at 2800 × g for 10 min prior to analysis for total and individual plasma amino acids. A glucose tolerance test was carried out on day 15 of the study following a 5 h fast as described below. Forelimb grip strength testing was performed at baseline and day 25 of the study. After 20 days, all groups were placed into metabolic cages, single housed for 72 h, as described below. After 72 h, all groups were removed from the metabolic cages and returned to their home cages. Following a 4 h fast on day 27 all mice were culled, with the following tissues dissected and snap frozen in liquid nitrogen prior to storage at −80°C: gastrocnemius, quadriceps, brown adipose tissue (BAT) and liver. Terminal blood was also collected and transferred on ice immediately for centrifugation as previously described and storage at −80°C.\n(§1) Food intake was measured daily using a dedicated weighing scale and topped up accordingly. Body weight was recorded at 9 am daily or every 48 h using the same weighing scale. Body composition was measured using an EchoMRI analyser at various timepoints during chronic studies. Body composition measurements were taken on the same time of day to reduce intra-animal variability. Animals were placed in a transparent cylindrical Perspex tube and both ends secured with Perspex clips. The tubes containing the animal was then carefully placed into the MRI machine (EchoMRI −100H analyser, EchoMRI). Each scan lasted approximately 90 s where lean mass and fat mass were recorded in grams. Following the scan, the mice were removed from the Perspex tube and returned to their respective cages.\nFor glucose tolerance tests, following a 5 h fast and administration of peptide or vehicle treatment, mice were administered with glucose by intraperitoneal injection at a dose of 2 g/kg body weight. Tail vein blood samples were taken at baseline, 20, 40, 60 and 90 min and glucose measured (mmol/L) using a handheld GlucoRx monitor (GlucoRx, UK).\nTo measure energy expenditure, DIO mice were placed into a Comprehensive Laboratory Animal Monitoring System (CLAMS, Columbus instruments, Columbus, US). Measurement of oxygen consumption and carbon dioxide production was taken at 20 min intervals. Food intake was also measured electronically without the need to remove food. Each cohort of mice were placed into the CLAMS system with daily weighing of body weight prior to administration of the allocated treatment at 9 am. Following administration of treatment, mice were placed back into the metabolic cages with ad libitum access to their allocated diet. For studies with the low amino acid (LAA) diet in metabolic cages, animals were not removed from the metabolic cages until the end of the experiment and had ad libitum access to either standard protein or low amino acid diets. Feed efficiency was calculated as mg body weight change per kJ consumed. […]"}, "lean C57BL/6 mice": {"system": "lean C57BL/6 mice", "experiment": "18-day dose-finding study of food intake in lean mice", "assay_type": "in vivo, mouse", "method": "C57BL/6 mice matched for weight and age (14-week-old, N = 24) were administered via subcutaneous injection at 9 am daily for 18 days, vehicle control or G108 diluted in sterile HPLC water. Ascending doses of either 5 nmol/kg, 10 nmol/kg or 20 nmol/kg G018 were administered. All mice had ad libitum access to RM1 diet (Special Diet Services, UK) and water. Food intake and body weights were recorded daily.\nas §1"}, "[2]": {"experiment": "Pharmacokinetic profile of G108 in rats (plasma radioimmunoassay)", "conditions": "rat, in vivo, sc, male Wistar rats, single 0.5 mg subcutaneous dose, sampled 1.5-72 h, n = 4, read-out: time at which peak plasma concentrations were achieved", "method": "10-week-old male Wistar rats (N = 4) were administered with 0.5 mg G108 via 100 μL subcutaneous injection. Tail venesection was performed to collect 100 μL blood samples prior to injection and at 1.5, 3, 6, 24, 48 and 72 h after injection. Blood samples were immediately frozen on ice, centrifuged at 8000 × g for 10 min at 4°C, and the plasma supernatant collected. Samples were stored at −20°C.\nAn in-house radioimmunoassay was used to determine peptide concentrations in the rat plasma. Antiserum (RA553/3) was produced in rabbits against the purified glucagon (1–16) fragment which specifically cross-reacted with the N-terminal glucagon-like sequence of G108. Direct iodination was used to produce Iodine-125 glucagon which was purified by reverse phase high pressure liquid chromatography. The assay was performed in a total volume of 700 μL of 0.06 M phosphate EDTA buffer containing 0.3% BSA. All samples were assayed in duplicate and the standard curve was set using 5 pmol/mL G108 in assay buffer. The assay was incubated for 3 nights at 4°C prior to separation via charcoal into free and antibody-bound label. A γ-counter was used to count the pellet and supernatant and the ratio of free to bound label was calculated. The plasma peptide concentration was calculated using two phase exponential decay with respect to the relevant standard curve."}},
  "note": "Starred links: 1 amine or outer side, 2 acyl side, 3 side chain; linkers in the order of their positions; H or OH if unused. Non-standard residues stand in square brackets, D forms with d. Residues, ends and D or L forms follow the SMILES beside them. Groups on a side chain read outwards from the residue. *: point of attachment. C18 diacid = O=C(O)CCCCCCCCCCCCCCCCC(=O)*; γGlu = O=C(O)[C@H](CCC(=O)[*:2])N[*:1]; Aib = CC(C)(N)C(=O)O",
  "data": [
    {"smiles": "CC[C@H](C)[C@H](NC(=O)[C@H](Cc1ccccc1)NC(=O)[C@H](CCC(=O)O)NC(=O)[C@H](CCC(N)=O)NC(=O)[C@H](C)NC(=O)[C@H](CCCNC(=N)N)NC(=O)[C@H](CCCCN)NC(=O)[C@H](C)NC(=O)[C@H](CC(=O)O)NC(=O)[C@H](CC(C)C)NC(=O)[C@H](Cc1ccc(O)cc1)NC(=O)[C@H](CCCNC(=N)N)NC(=O)[C@H](CO)NC(=O)[C@H](Cc1ccc(O)cc1)NC(=O)[C@H](CC(=O)O)NC(=O)[C@H](CO)NC(=O)[C@@H](NC(=O)[C@H](Cc1ccccc1)NC(=O)[C@@H](NC(=O)CNC(=O)[C@H](Cc1c[nH]cn1)NC(=O)C(C)(C)NC(=O)[C@@H](N)Cc1c[nH]cn1)[C@@H](C)O)[C@@H](C)O)C(=O)N[C@@H](CCC(=O)O)C(=O)N[C@@H](Cc1c[nH]c2ccccc12)C(=O)N[C@@H](CC(C)C)C(=O)N[C@@H](CC(C)C)C(=O)N[C@@H](CCC(N)=O)C(=O)N[C@@H](CO)C(=O)N[C@@H](Cc1c[nH]cn1)C(=O)N[C@@H](Cc1c[nH]cn1)C(=O)N[C@@H](CCC(N)=O)C(=O)N[C@@H](Cc1c[nH]cn1)C(=O)N[C@@H](Cc1c[nH]cn1)C(=O)N1CCC[C@H]1C(=O)N[C@@H](CO)C(=O)N1CCC[C@H]1C(=O)N1CCC[C@H]1C(=O)N1CCC[C@H]1C(=O)N[C@@H](CCCCNC(=O)[C@H](CC(N)=O)NC(=O)CC[C@H](NC(=O)CCCCCCCCCCCCCCCCC(=O)O)C(=O)O)C(N)=O", "note": "[Peptide G108] (H-H[Aib]HGTFTSDYSRYLDAKRAQEFIEWLLQSHHQHHPSPPPK([Asn-γGlu-C18 diacid])-NH2; N-terminus and C-terminus assumed)", "values": [
      {"measurement": "food intake", "setting": "[1]; 27 days", "result": "did not affect food intake"},
      {"measurement": "body weight on high protein (HP) diet", "setting": "[1]; 27 days, HP diet (40 kcal% protein) versus SP diet, n = 9/group", "result": "sufficient to prevent chronic G108-mediated weight loss"},
      {"measurement": "lean mass and grip strength on HP diet", "setting": "[1]; HP diet, less pronounced over the course of the study", "result": "blunted the reduction in lean mass and grip strength"},
      {"measurement": "energy expenditure (EE) in metabolic cages", "setting": "[1]; after 20 days, CLAMS, SP and HP diets, n = 7-8/group", "result": "increased EE on a standard protein (SP), but not HP, diet"},
      {"measurement": "individual plasma amino acids", "setting": "[1]; day 13, SP diet, GC/MS, n = 5/group", "result": "reduced the plasma abundance of most amino acids"},
      {"measurement": "plasma total cholesterol", "setting": "[1]; day 14, both SP and HP diets, n = 9/group", "result": "improvement in plasma cholesterol"},
      {"measurement": "plasma total triglyceride", "setting": "[1]; day 14, n = 9/group", "result": "no change in plasma triglycerides"},
      {"measurement": "glucose tolerance (intraperitoneal glucose tolerance test, 2 g/kg)", "setting": "[1]; day 15, SP and HP diets, n = 9/group", "result": "remarkably efficient at improving glucose tolerance"},
      {"measurement": "fat mass on standard protein (SP) diet", "setting": "[1]; days 14 and 25, SP diet, prevented by HP diet", "result": "marked reduction in fat mass"},
      {"measurement": "induction of hepatic amino acid catabolic pathways on HP diet", "setting": "[1]; liver qPCR, n = 5-6/group", "result": "not prevented by the HP diet"},
      {"measurement": "hepatic lipid content (oil red O staining)", "setting": "[1]; terminal (day 27), both SP and HP diets", "result": "highly effective at clearing liver fat"},
      {"measurement": "food intake", "setting": "lean C57BL/6 mice; 5 nmol/kg s.c. daily", "result": "no effect on food intake"},
      {"measurement": "food intake", "setting": "lean C57BL/6 mice; 10 nmol/kg s.c. daily, 18 days, n = 6/group", "result": "sustained reduction in food intake"},
      {"measurement": "food intake", "setting": "lean C57BL/6 mice; 20 nmol/kg s.c. daily, 18 days, n = 6/group", "result": "sustained reduction in food intake"},
      {"measurement": "Tmax", "setting": "[2]", "result": 24, "unit": "h"}
    ]}
  ]
}
